Results on eight molecules are retold here after PubChem BioAssay (NCI).

Test systems include MDA-MB-231 breast; OVCAR-8 ovarian; LOX IMVI melanoma; OVCAR-4 ovarian; BT-549 breast; MDA-MB-435; HS 578T breast; MDA-N; DMS 114 small cell lung; XF 498 CNS; SNB-78 CNS; DMS 273 small cell lung; DLD-1 colon.
Experiment in all cases: NCI anticancer screen, dose series, 48 h

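Test compounds were applied to cells in 96-well plates for 48 hours at 5 doses. At the GI50, growth is halved. TGI: total growth inhibition.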

Turning to `COc1ccc(-c2c(C#N)cnc(N)c2-c2nc3cc(C)c(C)cc3[nH]2)cc1`, the GI50 in the test on MDA-MB-231 breast is 8.28 µM; in the test on OVCAR-8 ovarian it was 5.2 µM; with LOX IMVI melanoma it was 5.74 µM; with OVCAR-4 ovarian, 22.5 µM; with BT-549 breast, 30.6 µM; in the test on MDA-MB-435, 1.95 µM. In the test on HS 578T breast, the GI50 was 5.87 µM. The TGI with MDA-MB-231 breast is greater than 100 µM; in the test on OVCAR-8 ovarian, 26.8 µM; in the test with LOX IMVI melanoma, greater than 100 µM; with OVCAR-4 ovarian, greater than 100 µM; with BT-549 breast it was greater than 100 µM; with MDA-MB-435 it was 5.39 µM. Further, in the test with HS 578T breast, the TGI is greater than 100 µM.
As for `COc1ccc2oc3c(ccc[n+]3C)c(=O)c2c1`, the TGI with MDA-MB-231 breast, with OVCAR-8 ovarian, with MDA-N, in the test with LOX IMVI melanoma, in the test with OVCAR-4 ovarian and in the test on MDA-MB-435 was greater than 100 µM in each case. This molecule also gave a TGI with HS 578T breast greater than 100 µM.
Consider `CC(CNc1nc(Nc2ccc(Cl)c(Cl)c2)nc(C(Cl)(Cl)Cl)n1)N(C)C` (stereo unspecified), for which, in the test with MDA-MB-231 breast, the GI50 is 0.307 µM and the TGI was determined as 1.42 µM.
As for `COc1cc2c(cc1O)N=C[C@@H]1CCC(O)N1C2=O` (mixture of isomers), the TGI in the test with OVCAR-8 ovarian stood at 10 µM; in the test with DMS 114 small cell lung, 1.41 µM; in the test with XF 498 CNS, 1.2 µM; in the test on SNB-78 CNS it was 46.3 µM; with LOX IMVI melanoma, 0.974 µM; in the test on OVCAR-4 ovarian it was 18 µM. Also, the TGI came to 19.6 µM in the test on DMS 273 small cell lung and 13.5 µM in the test with DLD-1 colon.
Take `CC(=O)Nc1nc(C)c(-c2cc3c(c(S(C)(=O)=O)c2)C(=O)N([C@@H](C)C2CC2)C3)s1`: the GI50 is 18.6 µM with MDA-MB-231 breast; 39.4 µM with OVCAR-8 ovarian; 29.1 µM in the test with LOX IMVI melanoma; 29.2 µM with OVCAR-4 ovarian; 29.1 µM in the test with BT-549 breast; 52.4 µM in the test on MDA-MB-435. Further, the GI50 in the test on HS 578T breast is 18.4 µM. The TGI is 69.6 µM in the test on MDA-MB-231 breast; greater than 100 µM in the test with OVCAR-8 ovarian; greater than 100 µM with LOX IMVI melanoma; greater than 100 µM in the test on OVCAR-4 ovarian; greater than 100 µM in the test with BT-549 breast; greater than 100 µM in the test on MDA-MB-435. Further, the TGI in the test with HS 578T breast is 64.2 µM.
Consider `CC(=O)O[C@@H]1CN(S(=O)(=O)c2ccc(C)cc2)C[C@@H]1C1CCCCC1`, for which the TGI was 69.6 µM with OVCAR-8 ovarian; 54.7 µM in the test with MDA-N; 64 µM in the test on LOX IMVI melanoma; greater than 100 µM with OVCAR-4 ovarian; 44.6 µM in the test on MDA-MB-435; 23.7 µM in the test with HS 578T breast.
Turning to `CCc1ncc(C(C)(O)c2ccccc2)n1Cc1ccccc1` (stereo unspecified), the TGI in the test with MDA-MB-231 breast is 96.3 µM; in the test with OVCAR-8 ovarian, greater than 100 µM; with LOX IMVI melanoma, 94 µM; with OVCAR-4 ovarian, greater than 100 µM; in the test on BT-549 breast it was greater than 100 µM; with MDA-MB-435 it was 48.1 µM. In the test with HS 578T breast, the TGI is greater than 100 µM.
Consider `CC1CC(c2ccc([N+](=O)[O-])cc2)=Nc2ccccc2S1=O` (stereo unspecified), for which the TGI in the test on OVCAR-8 ovarian is 32.9 µM; in the test on DMS 114 small cell lung it was 33.2 µM; with XF 498 CNS, 95.1 µM; in the test on SNB-78 CNS it was greater than 100 µM; with LOX IMVI melanoma, 25.6 µM; with OVCAR-4 ovarian it was 62.3 µM. Also, the TGI in the test on DMS 273 small cell lung was 42.7 µM; in the test on DLD-1 colon, 33.6 µM.
